Experimental data reported in patent US8796295B2, “Substituted benzamide analogs as mGluR5 negative allosteric modulators and methods of making and using the same” (priority 2009, dated 2014).

Target: rat mGluR5 (Rattus norvegicus (Rat), UniProt P31424)
Test: cell-based
Experimental: The cells were loaded with a Ca2+-sensitive fluorescent dye (e.g., Fluo-4), and the plates were washed and placed in the FDSS instrument. Test compound was applied to cells 3 seconds after baseline readings were taken. Cells were incubated with the test compounds for 140 seconds and then stimulated with an EC20 concentration of an mGluR5 agonist (e.g., glutamate, 3,5-dihydroxyphenylglycine, or quisqualate); 60-80 seconds later an EC80 concentration of agonist was added and readings taken for an additional 40 seconds. Data were collected at 1 Hz. […] Concentration response curves were generated using a four parameter logistical equation.
The above described assay was operated in two modes. In the first mode (utilizing a triple add protocol), a range of concentrations of the present compounds were added to cells, followed by two single fixed concentrations of agonist (EC20 followed by EC80). If a compound acted as a potentiator, an EC50 value for potentiation of the EC20 response and a maximum extent of potentiation by the compound at this concentration of agonist was determined by non-linear curve fitting. If a compound acted as an antagonist, an IC50 value for antagonism of the EC80 response and a maximum extent of antagonism by the compound at this concentration of agonist was determined by non-linear curve fitting. In the second mode (utilizing a double add protocol), several fixed concentrations of the present compounds were added to various wells on a plate, followed by a range of concentrations of agonist for each concentration of present compound; the EC50 values for the agonist at each concentration of compound were determined by nonlinear curve fitting. A decrease in the EC50 value of the agonist with increasing concentrations of the present compounds (a leftward shift of the agonist concentration-response curve) is an indication of the degree of mGluR5 positive allosteric modulation at a given concentration of the present compound. An increase in the EC50 value of the agonist with increasing concentrations of the present compounds (a rightward shift of the agonist concentration response curve) is an indication of the degree of mGluR5 antagonism at a given concentration of the present compound. The second mode also indicates whether the present compounds also affect the maximum response to mGluR5 to agonists.
The mGluR5 activity was determined using the metabotropic glutamate receptor activity assays in human embryonic kidney cells as described herein, wherein the human embryonic kidney cells were transfected with rat mGluR5. The mGluR5 activity data for some compounds are shown as the average of at least three experiments with the standard error in these cases. If no error is indicated for the mGluR5 activity, the values given represent the results from a single experiment or the average of two experiments.

rat mGluR5, sequence (P31424 21-1203): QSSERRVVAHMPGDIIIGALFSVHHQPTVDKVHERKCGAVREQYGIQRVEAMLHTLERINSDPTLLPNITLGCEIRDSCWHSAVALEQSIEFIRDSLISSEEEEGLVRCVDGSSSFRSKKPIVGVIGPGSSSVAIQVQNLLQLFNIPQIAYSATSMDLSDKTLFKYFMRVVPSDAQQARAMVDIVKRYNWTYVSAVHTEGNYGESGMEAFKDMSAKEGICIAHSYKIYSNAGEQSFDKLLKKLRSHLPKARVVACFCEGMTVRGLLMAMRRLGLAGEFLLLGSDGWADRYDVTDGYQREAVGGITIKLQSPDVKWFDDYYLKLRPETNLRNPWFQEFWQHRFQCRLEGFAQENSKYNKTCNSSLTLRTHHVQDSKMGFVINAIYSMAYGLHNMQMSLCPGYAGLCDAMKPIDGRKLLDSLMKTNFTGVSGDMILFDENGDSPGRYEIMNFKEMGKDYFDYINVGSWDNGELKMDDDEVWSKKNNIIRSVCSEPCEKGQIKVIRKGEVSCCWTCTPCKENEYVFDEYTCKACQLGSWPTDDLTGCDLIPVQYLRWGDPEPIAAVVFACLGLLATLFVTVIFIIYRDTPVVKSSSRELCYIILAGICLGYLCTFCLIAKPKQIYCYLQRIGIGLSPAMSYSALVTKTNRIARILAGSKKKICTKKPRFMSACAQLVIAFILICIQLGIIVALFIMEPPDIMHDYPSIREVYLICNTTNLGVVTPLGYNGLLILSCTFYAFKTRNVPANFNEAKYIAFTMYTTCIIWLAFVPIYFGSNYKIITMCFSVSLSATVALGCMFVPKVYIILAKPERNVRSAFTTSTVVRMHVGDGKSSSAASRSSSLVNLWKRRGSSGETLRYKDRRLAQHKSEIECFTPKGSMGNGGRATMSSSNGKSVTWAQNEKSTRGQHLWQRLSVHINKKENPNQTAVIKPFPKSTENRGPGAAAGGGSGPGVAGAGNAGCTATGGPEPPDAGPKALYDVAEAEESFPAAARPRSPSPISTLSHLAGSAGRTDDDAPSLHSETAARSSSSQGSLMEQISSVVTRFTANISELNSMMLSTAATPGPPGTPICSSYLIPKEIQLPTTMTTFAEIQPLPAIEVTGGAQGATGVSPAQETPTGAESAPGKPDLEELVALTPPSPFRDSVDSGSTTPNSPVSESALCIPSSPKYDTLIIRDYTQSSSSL

| SMILES | IC50 [nM] |
| --- | --- |
| O=C(Nc1ccc(F)cn1)c1cccc(Oc2cccnc2)c1 | 7450 |
| Cc1csc(NC(=O)c2cccc(Oc3cccnc3)c2)n1 | 296 |
| Cc1nsc(NC(=O)c2cccc(Oc3cccnc3)c2)n1 | > 30000 |
| O=C(Nc1ccncn1)c1cccc(Oc2cccnc2)c1 | > 10000 |
| N#Cc1csc(NC(=O)c2cccc(Oc3cccnc3)c2)n1 | 3590 |
| O=C(Nc1nc(C(F)(F)F)cs1)c1cccc(Oc2cccnc2)c1 | > 30000 |
| O=C(Nc1nccs1)c1cccc(Oc2cncnc2)c1 | 4550 |
| Cc1csc(NC(=O)c2cccc(Oc3cncnc3)c2)n1 | 65 |
| Cc1csc(NC(=O)c2cc(Cl)cc(Oc3cccnc3)c2)n1 | 6.5 |
| O=C(Nc1nccs1)c1cc(F)cc(Oc2cncnc2)c1 | 5160 |
| Cc1nc(NC(=O)c2cc(F)cc(Oc3cncnc3)c2)sc1F | 52 |
| O=C(Nc1ncc(F)cc1F)c1cc(Cl)cc(Oc2cncnc2)c1 | > 30000 |
| O=C(Nc1ccc(Cl)cn1)c1cc(Cl)cc(Oc2cncnc2)c1 | 87 |
| Cc1cc(NC(=O)c2cc(Cl)cc(Oc3cncnc3)c2)ncc1F | 2780 |
| O=C(Nc1ncccc1F)c1cc(Cl)cc(Oc2cncnc2)c1 | > 10000 |
| O=C(Nc1nc(C2CC2)cs1)c1cc(Cl)cc(Oc2cncnc2)c1 | 198 |
| O=C(Nc1nc(C(F)F)cs1)c1cc(Cl)cc(Oc2cncnc2)c1 | 389 |
| CCc1ccnc(NC(=O)c2cc(Cl)cc(Oc3cncnc3)c2)c1 | 4160 |
| Cc1nc(NC(=O)c2cc(Cl)cc(Oc3cncnc3)c2)sc1Br | 3700 |
| O=C(Nc1ccc(F)c(CF)n1)c1cc(F)cc(Oc2cncnc2)c1 | 4540 |
| COc1cccc(NC(=O)c2cc(F)cc(Oc3cncnc3)c2)n1 | 1060 |

| SMILES | IC50 [nM] |
| --- | --- |
| O=C(Nc1ccc(F)c(C(F)F)n1)c1cc(Cl)cc(Oc2cncnc2)c1 | 779 |
| Cc1nc(NC(=O)c2cc(F)cc(Oc3cncnc3)c2)ccc1F | 360 |
| Cc1nc(NC(=O)c2cc(Cl)cc(Oc3cncnc3)c2)ccc1F | 54 |
| Cc1nc(NC(=O)c2cc(F)cc(Oc3cncnc3)c2)sc1C(C)(C)C | > 10000 |
| O=C(Nc1nc(C2CC2)cs1)c1cc(F)cc(Oc2cncnc2)c1 | 345 |
| Cc1cncc(NC(=O)c2cc(Cl)cc(Oc3cncnc3)c2)c1 | > 10000 |
| Cc1cncc(NC(=O)c2cc(F)cc(Oc3cncnc3)c2)c1 | > 10000 |
| CN(c1cccnc1)c1cccc(C(=O)Nc2nccs2)c1 | 3560 |
| CN(c1cccnc1)c1cc(F)cc(C(=O)Nc2nc(C#N)cs2)c1 | 2190 |
| CN(c1cccnc1)c1cc(F)cc(C(=O)Nc2nccs2)c1 | 1250 |
| Cc1csc(NC(=O)c2cc(F)cc(N(C)c3cccnc3)c2)n1 | 176 |
| CN(c1cccnc1)c1cc(Cl)cc(C(=O)Nc2nccs2)c1 | 648 |
| Cc1csc(NC(=O)c2cc(Cl)cc(N(C)c3cccnc3)c2)n1 | 49 |
| CN(c1cncnc1)c1cc(F)cc(C(=O)Nc2cc(Cl)ccn2)c1 | 106 |
| CN(c1cncnc1)c1cc(Cl)cc(C(=O)Nc2cc(Cl)ccn2)c1 | 262 |
| CN(c1cncnc1)c1cc(F)cc(C(=O)Nc2ccc(Cl)cn2)c1 | > 30000 |
| CN(c1cncnc1)c1cc(Cl)cc(C(=O)Nc2ccc(Cl)cn2)c1 | 929 |
| Cc1cncc(NC(=O)c2cc(F)cc(N(C)c3cncnc3)c2)c1 | > 10000 |
| Cc1cncc(NC(=O)c2cc(Cl)cc(N(C)c3cncnc3)c2)c1 | > 10000 |
| Cc1cc(Oc2cncnc2)cc(C(=O)Nc2ccc(F)cn2)c1 | 22 |
